# Legend:
# Type in all cases: in vivo, human
# [1] = system: Asian volunteers with dull skin and large senescence spots; assay: Clinical study: ultrasound measurement of dermis density using DUB SkinScanner; conditions: for Dermis density Mean +/− SD / Dermis density change vs D 0: cream with 2% ascorbic acid, hemiface, Asian women
# From the text: (§1) For this study, volunteers applied the cream twice a day for 56 days.
# (§2) GLYCOL, DIMETHICONE, FRAGRANCE
# (§3) Volunteers were divided into two groups as follows: • Group 1: 20 Asian women testing the active cream in comparison to the placebo cream with an average age of 54±5 years. • Group 2: 18 Asian women testing the vitamin C cream in comparison to the placebo cream with an average age of 53±8 years.
# (§4) Volunteers applied a cream containing 0.4% of active, 2% of ascorbic acid (vitamin C), respectively, on one hemiface and a placebo cream on the other hemiface […] for 56 days.
# (§5) During this study, a skin color and spots analysis was conducted using Colorface®, biomechanical properties were tested using Cutometery®, and the dermis thickness was determined using a DUB SkinScanner 75® probe (max. depth of 3.28 mm).
# The DUB Skin Scanner system is a high-frequency, high-resolution ultrasound diagnostic tool for use in dermatology, cosmetics and pharmaceuticals and clinical research. 75 MHz ultrasound is a popular method for non-invasive skin analysis. High frequency ultrasound (75 MHz) can explore the superficial layers of the skin and can penetrate up to 3 mm into the skin. Skin ultrasound is based on the population of ultrasound in the skin and on the direction and measurement of the amplitudes of the part reflected by the interfaces separating two media having different characteristics of acoustic waves. An ultrasound imaging technique used for the visualization of the structure of the subcutaneous body allows the evaluation of the homogeneity of the skin, including the density and the skin thickness.
# Three measurements of thickness and density were taken to obtain an average for each image.
# For this study, the analysis of the density of the dermis was carried out on D0, D28 and D56.
# [2] = system: female Caucasian volunteers presenting brown spots on their hands; assay: Clinical study: age-spot removal by Raman spectroscopy (skin background fluorescence, melanin detection); conditions: for Melanin detection Mean +/− SD / Melanin detection TBX − TB0: hands, twice daily, Caucasian women
# Protocol: A double blind and placebo controlled clinical evaluation was carried out on 45 female Caucasian volunteers aged from 45 to 75 years. The volunteers were presenting brown spots on their hands. All the subjects participating in the study gave their informed consent at the beginning of the study. […] At D0 and D56, the anti-spot efficacy was analyzed by Raman spectroscopy. The compositions described in Example 12 were used. The set-up included a confocal Raman probe coupled to a dispersive Raman spectrograph. The excitation laser beam was sent to the remote probe via a 5 μm core-diameter fiber and the Raman signal was conveyed to the spectrograph via a 100 μm core-diameter fiber. The probe was equipped with a 100× long working distance objective operating in air. A piezo-electric device allowed to collect Z Raman profiles by assuring axial measurements from the surface down to a defined depth in the skin. A color video camera integrated in the probe permitted to visualize the skin surface. This camera is also useful to control the focalization of the laser on the skin. The spectrograph was equipped with a CCD (Coupled Charge Detector) of 1024×256 elements cooled by Peltier effect, and an 830 grooves/mm grating, which allows to cover a large spectral range from 550 to 3700 cm^−1 in a single shot acquisition, with a spectral resolution of about 6 cm^−1. The excitation source was a 660 nm laser diode and the power at the sample was set to 30 mW in accordance with protection standards for radiation. For protection against laser radiation, protective glasses were used. The 660 nm excitation was chosen as the optimal compromise between generation of parasitic fluorescence and sensitivity of the CCD camera over the whole spectral range. For skin characterization, the measurement of high wavenumber vibrations is important to access information on water content. For data acquisition, the device was controlled by the Labspec 5 software. The Z profiles consist of an in-depth scanning through the skin. Raman spectra were collected at different focus points, from skin surface Z=0 μm to 30 μm (under the skin surface) with 3 μm steps. The measurement depths are indicated in the following table with the corresponding acquisition times, leading to a time of 1 min for a complete profile. In total, 519 Raman profiles were recorded: 2 profiles per condition and for each area (unstained area and brown spot area). Each profile comprises 14 spectra, resulting in recorded 7266 spectra. These measurements were used for the evaluation of the spectroscopic marker of skin background fluorescence. This marker is associated with the degree of skin lightening: A decrease in this marker indicates a positive skin lightening effect, whereas a stability or an increase in this marker means that the product has no lightening effect on the skin. The pre-processing of spectral data was performed using Matlab 7.2 (The MathWorks Inc., USA). Aberrant profiles (bad S/N (signal/noise) ratio, fluorescence, incomplete profile with a large zero offset, saturation . . . ) were excluded from the data base. Each non-aberrant profile was submitted to background corrections, which allowed to clean up the Raman signal of the skin. These background corrections included smoothing spectra with a 9-mm Savitzky-Golay filter, spikes correction, […] the normalization on the intensity of the entire wavenumber range with a vectorial function. A baseline correction was not done in order to preserve the skin background fluorescence, which allows for the extraction of the skin fluorescence markers associated with the degree of skin lightening. After these pre-processing steps, corrected data were used to determine the spectra corresponding to the Stratum corneum surface. […] The skin properties were evaluated using Raman spectroscopy after 28 and 56 days of twice daily application.
# [3] = system: Asian volunteers with dull skin and large senescence spots; assay: Clinical study: skin biomechanical properties by Cutometer (R0, firmness); conditions: for Firmness effect (R0) Mean +/− SD / Firmness effect (R0) Average variation (%) vs D 0: hemiface
# From the text: as §1, §2, §3, §4, §5
# The analysis of the mechanical properties of the skin enables to assess the functional state of the following tissue structures: • The elastic structures, such as elastic fibers, curvature of the connective bundles, wrinkles of the stratum corneum; and • the viscous-behaving structures, such as interstitial fluids, internal adherences.
# The study was performed using a Cutometer® MPA 580 (Courage & Khazaka). The measuring principle is based on the suction method: Negative pressure is created in the device and the skin is drawn into a cylindrical aperture (2 mm in diameter) of the probe. Inside the probe, the penetration depth is determined by an optical measuring system. Each suction phase is followed by a relaxing phase.
# In the present study, the following program was used: • Length of the cycle: 4 seconds • Suction: 2 seconds • Relaxation: 2 seconds • Negative pressure: 450 millibars • Diameter of the chamber: 2 mm • Area measured: crow's feet
# From these curves, the parameters can be calculated. • During the suction phase, the deformation of the skin by the negative pressure measures first the elastic resistance and then the viscous component, which taken together represent skin firmness. • During the relaxation phase, the immediate recovery of the skin measures sheer cutaneous elasticity, whereas the delayed return of the skin to its initial position measures the viscoelastic component.
# This study focused on the R0 or Uf parameter, which represents the amplitude of the skin during the suction phase. At equal pressure, the more flexible the skin, the greater the amplitude. Thus R0 (or UF) will evaluate the viscoelastic dispensability, or in other words, the firmness of the skin.
# These parameters were measured on D0, D28, D56.
# [4] = cream with 2% ascorbic acid, Asian women, D 28
# [5] = cream with 2% ascorbic acid, Asian women, D 56
smiles,measurement,setting,value
"O=C1O[C@H]([C@@H](O)CO)C(O)=C1O [Ascorbic acid, ascorbic acid]",Dermis density Mean +/− SD,[1]; D 0 (baseline),37.7 ± 8.1 arbitrary unit
same,Dermis density Mean +/− SD,[1]; D 28,39.1 ± 8.3 arbitrary unit
same,Dermis density change vs D 0,[1]; D 28,+3.8%
same,Dermis density Mean +/− SD,[1]; D 56,40.7 ± 9.2 arbitrary unit
same,Dermis density change vs D 0,[1]; D 56,+7.2%
same,Melanin detection Mean +/− SD,"[2]; ascorbic acid at 2%, D 0 (baseline)",49.80 ± 13.13 arbitrary unit
same,Melanin detection Mean +/− SD,"[2]; ascorbic acid at 2%, D 28",52.05 ± 11.23 arbitrary unit
same,Melanin detection TBX − TB0,"[2]; ascorbic acid at 2%, D 28",+2.25 a.u
same,Melanin detection Mean +/− SD,"[2]; ascorbic acid at 2%, D 56",32.28 ± 10.43 arbitrary unit
same,Melanin detection TBX − TB0,"[2]; ascorbic acid at 2%, D 56",−17.52 a.u
same,Firmness effect (R0) Mean +/− SD,"[3]; cream with 2% ascorbic acid, Asian women, D 0 (baseline)",0.283 ± 0.036 arbitrary unit
same,Firmness effect (R0) Average variation (%) vs D 0,[3]; [4],−6.9%
same,Firmness effect (R0) Mean +/− SD,[3]; [4],0.263 ± 0.032 arbitrary unit
same,Firmness effect (R0) Average variation (%) vs D 0,[3]; [5],−6.5%
same,Firmness effect (R0) Mean +/− SD,[3]; [5],0.264 ± 0.046 arbitrary unit
O=C(O[C@@H]1Cc2c(O)cc(O)cc2O[C@@H]1c1cc(O)c(O[C@H]2O[C@H](CO)[C@@H](O)[C@H](O)[C@H]2O)c(O)c1)c1cc(O)c(O)c(O)c1 [epigallocatechin gallate 4′-O-α-monoglucoside],increase of the dermis density,"[1]; summary statement, clinical evaluation on Asian volunteers",up to 16.6%
same,reduction of skin heterogeneity,[2]; Caucasian volunteers having pigmented spots on their hands,up to −24%
same,Melanin detection TBX − TB0,"[2]; product with 0.4% purified preparation, D 28",−10.2 a.u
same,Melanin detection TBX − TB0,"[2]; product with 0.4% purified preparation, D 56",−20.4 a.u
same,improvement of skin firmness relative to the placebo cream,"[3]; active cream 0.4%, Asian women",up to 21 fold
same,Firmness effect (R0) Average variation (%) vs D 0,"[3]; active cream 0.4%, Asian women, D 28",~8.7%
same,Firmness effect (R0) Average variation (%) vs D 0,"[3]; active cream 0.4%, Asian women, D 56",−8.2%
same,"improvement of skin firmness, times better than placebo",[3]; after 56 days,up to 21 times

# Source: patent US20260152777A1, “METHOD FOR PRODUCING EPIGALLOCATECHIN GALLATE MONOGLUCOSIDE” (GIVAUDAN SA, priority 2022, published 2026)
